Experimental data as given in paper PMC13052863 (PLOS One, 2026).
Read-outs that look alike come from different tables or passages of the source.

Tests used:
[1] = target: T1, D. melanogaster eIF4A wt (Drosophila melanogaster, UniProt Q02748); type: binding; details: S3 Table
T1 construct: made in house; host or cells: E. coli BL21 (DE3)

[2] = target: T2, D. melanogaster eIF4A mutant Y160L (Drosophila melanogaster, UniProt Q02748, Y160L); type: binding; details: S3 Table, D. melanogaster mut.
T2 construct: made in house; host or cells: E. coli BL21 (DE3)

[3] = system: Ae. aegypti eIF4A mutant H161L; details: for reduction in thermal shift with the mutant compared to the wt protein: Ae. aegypti eIF4A, (GA)5 10mer; for ∆Tm: S3 Table, Ae. aegypti mut.
[4] = system: A. suspensa eIF4A mutant Y160L; details: S3 Table, A. suspensa mut.
[5] = system: RVFV MP-12; type: cell-based, Rift Valley fever virus; details: A549 cells pretreated with 50 nM silvestrol, MOI 0.1, 18 h post-infection, relative to DMSO controls
[6] = system: RVFV Clone 13; type: cell-based, Rift Valley fever virus; details: A549 cells pretreated with 50 nM silvestrol, MOI 0.1, 18 h post-infection, relative to DMSO controls
[7] = system: eIF4A-dependent firefly luciferase translation in S2 cells; type: cell-based, D. melanogaster; details: t = 24 h
[8] = system: eIF4A-dependent firefly luciferase translation in Aag2 cells; type: cell-based, Ae. aegypti; details: t = 48 h
[9] = system: A549 cells; details: 50–100 nM, WST-1
[10] = system: Aag2 cells; test: cells; details: Aedes aegypti, read-out: IC50 (best-fit value, 4PL dose-viability curve)
[11] = system: S2 cells; test: cells; details: Drosophila melanogaster, read-out: IC50 (best-fit value, 4PL dose-viability curve)
[12] = in vitro; details: Aedes aegypti, CC50, Aag2 cells, WST-1
[13] = in vitro; details: Drosophila melanogaster, CC50, S2 cells, WST-1
[14] = silvestrol in the sub-CC50 range, vs DMSO and (AC)15 control

T2 sequence (Q02748 whole entry Y160L): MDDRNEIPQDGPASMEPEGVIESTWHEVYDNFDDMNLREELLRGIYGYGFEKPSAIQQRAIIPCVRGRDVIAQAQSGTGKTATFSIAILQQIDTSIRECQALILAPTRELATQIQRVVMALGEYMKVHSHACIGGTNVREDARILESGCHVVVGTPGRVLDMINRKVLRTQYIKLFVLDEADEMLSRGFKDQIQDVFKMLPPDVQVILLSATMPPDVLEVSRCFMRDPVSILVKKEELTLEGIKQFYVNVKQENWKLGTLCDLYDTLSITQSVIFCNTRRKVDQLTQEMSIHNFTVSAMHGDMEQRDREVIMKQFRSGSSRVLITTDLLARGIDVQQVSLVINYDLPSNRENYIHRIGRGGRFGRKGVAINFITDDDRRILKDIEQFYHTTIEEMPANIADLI
T1 sequence (Q02748 whole entry): as the sequence (Q02748 whole entry Y160L) above, with L160Y counted along it

In the case of `CONC(=O)C1C(O)C2(O)c3c(OC)cc(OC)cc3OC2(c2ccc(OC)cc2)C1c1ccccc1` (stereo not drawn) [CR-31-B (-)], the “∆Tm” value ([1]; RNA oligo (AC)5) is reported as -0.43 °C, the “∆Tm” value ([1]; RNA oligo (AG)5) is reported as 6.55 °C and the “∆Tm” value ([1]; RNA oligo (GA)5) is reported as 5.81 °C. The “∆Tm” value ([1]; RNA oligo (UA)5) was -0.71 °C, the “∆Tm” value ([1]; RNA oligo (UC)5) was -1.11 °C and the “∆Tm” value ([1]; RNA oligo (UG)5) was 5.59 °C. The “∆Tm” value ([2]; RNA oligo (AC)5) was -4.66 °C, the “∆Tm” value ([2]; RNA oligo (AG)5) was 0.74 °C and the “∆Tm” value ([2]; RNA oligo (GA)5) was 1.88 °C. For the same molecule, the “∆Tm” value ([2]; RNA oligo (UA)5) was -4.43 °C, the “∆Tm” value ([2]; RNA oligo (UC)5) was -4.09 °C and the “∆Tm” value ([2]; RNA oligo (UG)5) was -2.27 °C. For the same molecule, the “reduction in thermal shift with the mutant compared to the wt protein” value [3] was about 3 °C, the “∆Tm” value ([3]; RNA oligo (AC)5) was -4.82 °C and the “∆Tm” value ([3]; RNA oligo (AG)5) was 7.50 °C. For the same molecule, the “∆Tm” value ([3]; RNA oligo (GA)5) was 3.74 °C, the “∆Tm” value ([3]; RNA oligo (UA)5) was -4.65 °C and the “∆Tm” value ([3]; RNA oligo (UC)5) was -5.44 °C. The “∆Tm” value ([3]; RNA oligo (UG)5) was -0.09 °C, the “∆Tm” value ([4]; RNA oligo (AC)5) was -4.03 °C and the “∆Tm” value ([4]; RNA oligo (GA)5) was 2.81 °C. For the same molecule, the “∆Tm” value ([4]; RNA oligo (UA)5) was -4.53 °C, the “∆Tm” value ([4]; RNA oligo (UC)5) was -4.59 °C and the “∆Tm” value ([4]; RNA oligo (UG)5) was -2.82 °C.

For `COC(=O)[C@H]1[C@@H](O)[C@@]2(O)c3c(OC)cc(O[C@@H]4O[C@@H]([C@H](O)CO)CO[C@H]4OC)cc3O[C@@]2(c2ccc(OC)cc2)[C@@H]1c1ccccc1` [silvestrol], the “RVFV L-segment RNA levels” value [5] was “strong reduction”, the “RVFV L-segment RNA levels” value [6] was “strong reduction” and the “translation efficiency with the (AC)15 control” value ([7]; silvestrol concentrations in the CC50 range) was “reduction of translation efficiency”. For the same molecule, the “firefly luciferase activity / translation efficiency with the (AG)15 plasmid” value [7, 14] was “strong reduction”, the “translation efficiency with the (AC)15 control” value [8] was “already visible at the half CC50 concentration” and the “firefly luciferase activity / translation efficiency with the (AG)15 plasmid” value [8, 14] was “strong reduction”. The “∆Tm” value ([1]; RNA oligo (AC)5) was 1.02 °C, the “∆Tm” value ([1]; RNA oligo (AG)5) was 9.55 °C and the “∆Tm” value ([1]; RNA oligo (GA)5) was 9.16 °C. For the same molecule, the “∆Tm” value ([1]; RNA oligo (UA)5) was -0.09 °C, the “∆Tm” value ([1]; RNA oligo (UC)5) was -0.09 °C and the “∆Tm” value ([1]; RNA oligo (UG)5) was 7.31 °C. For the same molecule, the “∆Tm” value ([2]; RNA oligo (AC)5) was -1.65 °C, the “∆Tm” value ([2]; RNA oligo (AG)5) was 1.76 °C and the “∆Tm” value ([2]; RNA oligo (GA)5) was 2.90 °C. For the same molecule, the “∆Tm” value ([2]; RNA oligo (UC)5) was -3.87 °C, the “∆Tm” value ([2]; RNA oligo (UG)5) was -2.05 °C and the cytotoxicity [9] was “No cytotoxicity”. The IC50 ([10]; 24 h) was 36.7 nM, the IC50 ([10]; 48 h) was 45.3 nM and the IC50 ([11]; 24 h) was 6.35 nM. The IC50 ([11]; 48 h) was 6.15 nM, the CC50 ([12]; 24 h incubation) was 55.6 nM and the CC50 ([12]; 48 h incubation) was 49 nM. For the same molecule, the CC50 ([13]; 24 h incubation) was 11.5 nM, the CC50 ([13]; 48 h incubation) was 7.3 nM and the “reduction in thermal shift with the mutant compared to the wt protein” value [3] was “about 5 °C”. For the same molecule, the “∆Tm” value ([3]; RNA oligo (AC)5) was -5.7 °C, the “∆Tm” value ([3]; RNA oligo (AG)5) was 7.84 °C and the “∆Tm” value ([3]; RNA oligo (GA)5) was 3.91 °C. The “∆Tm” value ([3]; RNA oligo (UA)5) was -5.16 °C, the “∆Tm” value ([3]; RNA oligo (UC)5) was -5.73 °C and the “∆Tm” value ([3]; RNA oligo (UG)5) was -0.68 °C. The “∆Tm” value ([4]; RNA oligo (AC)5) was -4.10 °C, the “∆Tm” value ([4]; RNA oligo (GA)5) was 3.53 °C and the “∆Tm” value ([4]; RNA oligo (UA)5) was -4.50 °C. The “∆Tm” value ([4]; RNA oligo (UC)5) was -4.15 °C and the “∆Tm” value ([4]; RNA oligo (UG)5) was -3.02 °C.
